Data taken from ChEMBL document CHEMBL1201862, “PubChem BioAssay data set” (2004).
Calls of active or inactive are those of the source.

Experiments:
Cytochrome P450 1A2 = biological target: T1, Cytochrome P450 1A2 (Homo sapiens, UniProt P05177);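 further: PubChem cytochrome P450 panel assay, CYP1A2 panel member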
T1 sequence (P05177 whole entry): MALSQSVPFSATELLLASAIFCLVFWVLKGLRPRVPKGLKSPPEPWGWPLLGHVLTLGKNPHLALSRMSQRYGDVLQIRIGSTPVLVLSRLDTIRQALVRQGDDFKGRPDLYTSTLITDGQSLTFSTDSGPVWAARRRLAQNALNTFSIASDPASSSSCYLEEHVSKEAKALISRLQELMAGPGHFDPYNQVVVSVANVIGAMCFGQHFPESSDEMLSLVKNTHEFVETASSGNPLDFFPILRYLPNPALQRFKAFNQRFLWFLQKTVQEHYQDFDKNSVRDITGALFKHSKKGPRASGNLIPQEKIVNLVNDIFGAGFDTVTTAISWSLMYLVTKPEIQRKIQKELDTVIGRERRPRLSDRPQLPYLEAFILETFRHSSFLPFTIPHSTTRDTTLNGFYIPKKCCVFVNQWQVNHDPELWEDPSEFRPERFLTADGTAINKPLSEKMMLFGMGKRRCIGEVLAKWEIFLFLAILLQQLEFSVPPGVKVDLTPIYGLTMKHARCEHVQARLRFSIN

Protein skinhead-1 = biological target: T2, Protein skinhead-1 (Caenorhabditis elegans, UniProt P34707); type: functional
T2 sequence (P34707 whole entry): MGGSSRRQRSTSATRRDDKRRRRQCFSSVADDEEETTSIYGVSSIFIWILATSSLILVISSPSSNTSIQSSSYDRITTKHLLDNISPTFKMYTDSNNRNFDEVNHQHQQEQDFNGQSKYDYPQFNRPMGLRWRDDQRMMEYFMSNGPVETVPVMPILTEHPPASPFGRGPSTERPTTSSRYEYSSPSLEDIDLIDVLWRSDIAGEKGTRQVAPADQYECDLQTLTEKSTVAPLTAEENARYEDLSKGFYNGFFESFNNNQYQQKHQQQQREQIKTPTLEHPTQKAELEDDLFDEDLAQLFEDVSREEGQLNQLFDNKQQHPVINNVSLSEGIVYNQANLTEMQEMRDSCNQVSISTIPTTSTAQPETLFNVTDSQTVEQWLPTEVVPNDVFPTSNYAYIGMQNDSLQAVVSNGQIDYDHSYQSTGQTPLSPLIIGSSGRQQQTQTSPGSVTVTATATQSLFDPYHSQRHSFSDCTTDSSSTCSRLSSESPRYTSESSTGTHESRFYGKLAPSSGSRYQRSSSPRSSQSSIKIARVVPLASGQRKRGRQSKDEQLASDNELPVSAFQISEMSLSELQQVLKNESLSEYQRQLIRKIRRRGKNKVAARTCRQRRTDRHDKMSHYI

Cytochrome P450 3A4 = Cytochrome P450 3A4 (Homo sapiens, UniProt P08684);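 further: CYP3A4 tested as one member of a cytochrome P450 panel screen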
Chain of Cytochrome P450 3A4 (P08684 whole entry): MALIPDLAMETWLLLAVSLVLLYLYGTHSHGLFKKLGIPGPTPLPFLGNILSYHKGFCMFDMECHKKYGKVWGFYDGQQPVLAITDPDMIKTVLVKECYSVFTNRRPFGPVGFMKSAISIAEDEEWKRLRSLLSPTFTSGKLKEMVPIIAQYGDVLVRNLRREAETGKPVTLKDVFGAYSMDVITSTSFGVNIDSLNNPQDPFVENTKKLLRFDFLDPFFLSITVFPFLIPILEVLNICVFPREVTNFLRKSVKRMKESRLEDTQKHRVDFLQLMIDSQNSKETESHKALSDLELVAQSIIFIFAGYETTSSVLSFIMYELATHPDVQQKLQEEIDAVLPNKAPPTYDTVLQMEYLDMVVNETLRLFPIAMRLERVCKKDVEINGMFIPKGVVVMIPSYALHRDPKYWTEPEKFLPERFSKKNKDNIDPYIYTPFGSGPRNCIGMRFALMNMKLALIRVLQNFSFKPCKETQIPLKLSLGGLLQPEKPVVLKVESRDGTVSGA

INS1 = assay: INS-1E survival protection against cytokine death – cell-based, luminescence, retest, dose response (AID 449756); type: functional; details: Rattus norvegicus;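 further: cell death triggered by IL-1 beta plus TNF-alpha plus IFN-gamma mixture; protective hits raise ATP signal compared with cytokine alone wells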
[1] = biological target: T3, Ubiquitin-conjugating enzyme E2 N (Homo sapiens, UniProt P61088); type: functional;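 further: Dose-response confirmation in a TR-FRET assay detecting UBC13-driven polyubiquitin chain formation, inhibition measured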
T3 sequence (P61088 whole entry): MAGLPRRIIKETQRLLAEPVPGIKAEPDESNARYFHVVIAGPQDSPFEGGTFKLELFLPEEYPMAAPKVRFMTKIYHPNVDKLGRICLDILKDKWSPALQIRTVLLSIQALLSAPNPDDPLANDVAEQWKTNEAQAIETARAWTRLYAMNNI

[2] = biological target: T4, Short transient receptor potential channel 4 (Mus musculus, UniProt Q9QUQ5); assay: block of DAMGO-driven TRPC4 calcium entry – cell-based, HEK293 TRPC4/mu-opioid, Fluo-4 calcium, dose response (AID 434942); type: functional;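 further: potency of inhibitors blocking the TRPC4 calcium response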
T4 sequence (Q9QUQ5 whole entry): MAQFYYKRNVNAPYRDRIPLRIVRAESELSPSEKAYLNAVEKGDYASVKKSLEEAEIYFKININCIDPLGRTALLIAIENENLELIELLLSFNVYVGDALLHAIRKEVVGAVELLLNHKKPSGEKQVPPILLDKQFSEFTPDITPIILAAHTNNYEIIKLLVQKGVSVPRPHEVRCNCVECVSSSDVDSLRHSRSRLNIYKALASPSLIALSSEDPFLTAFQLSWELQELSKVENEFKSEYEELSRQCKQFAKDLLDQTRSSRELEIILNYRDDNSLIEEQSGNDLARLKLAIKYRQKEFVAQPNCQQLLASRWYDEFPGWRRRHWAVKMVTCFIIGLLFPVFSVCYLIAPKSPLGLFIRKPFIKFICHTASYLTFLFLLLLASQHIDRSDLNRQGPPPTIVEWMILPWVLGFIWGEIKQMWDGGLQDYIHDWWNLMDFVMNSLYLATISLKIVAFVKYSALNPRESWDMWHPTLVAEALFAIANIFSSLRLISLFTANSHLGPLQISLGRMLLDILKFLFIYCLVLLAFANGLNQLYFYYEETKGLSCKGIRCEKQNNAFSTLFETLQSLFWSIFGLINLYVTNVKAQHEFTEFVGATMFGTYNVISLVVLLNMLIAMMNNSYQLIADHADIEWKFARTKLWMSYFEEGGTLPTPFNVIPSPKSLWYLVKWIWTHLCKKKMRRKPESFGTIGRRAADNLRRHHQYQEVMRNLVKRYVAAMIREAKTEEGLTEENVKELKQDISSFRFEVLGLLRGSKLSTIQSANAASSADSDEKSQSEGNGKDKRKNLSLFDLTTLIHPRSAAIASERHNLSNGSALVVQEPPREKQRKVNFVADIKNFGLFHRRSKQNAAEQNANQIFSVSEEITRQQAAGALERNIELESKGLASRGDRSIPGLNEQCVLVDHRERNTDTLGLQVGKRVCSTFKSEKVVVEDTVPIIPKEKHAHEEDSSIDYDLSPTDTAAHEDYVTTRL

cells [3] = type: functional, cell-based
cells [4] = type: functional, cell-based; remark: listed apart in the source
cells [5] = type: functional
Cytochrome P450 2C19 = Cytochrome P450 2C19 (Homo sapiens, UniProt P33261); assay: Cytochrome panel assay with activity outcomes. Panel member name: p450-cyp2c19 Compounds with AC50 equal or less than 10 uM are considered active; type: functional; details: read-out: AC50
Chain of Cytochrome P450 2C19 (P33261 whole entry): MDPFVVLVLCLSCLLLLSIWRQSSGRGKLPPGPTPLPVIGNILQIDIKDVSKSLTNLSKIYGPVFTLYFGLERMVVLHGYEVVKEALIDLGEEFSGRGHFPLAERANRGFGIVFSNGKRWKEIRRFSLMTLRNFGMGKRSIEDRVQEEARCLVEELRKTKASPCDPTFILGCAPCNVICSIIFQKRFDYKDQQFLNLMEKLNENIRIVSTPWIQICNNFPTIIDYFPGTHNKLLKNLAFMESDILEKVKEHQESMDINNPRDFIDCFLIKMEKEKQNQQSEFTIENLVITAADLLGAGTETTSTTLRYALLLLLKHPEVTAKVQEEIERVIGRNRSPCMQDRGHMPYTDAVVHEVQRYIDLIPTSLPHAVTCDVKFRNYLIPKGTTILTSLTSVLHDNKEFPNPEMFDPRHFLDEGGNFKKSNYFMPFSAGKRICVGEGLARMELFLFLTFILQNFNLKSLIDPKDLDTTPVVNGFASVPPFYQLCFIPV

Cytochrome P450 2D6 = Cytochrome P450 2D6 (Homo sapiens, UniProt P10635);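 further: CYP2D6 member of a cytochrome P450 panel assay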
Chain of Cytochrome P450 2D6 (P10635 whole entry): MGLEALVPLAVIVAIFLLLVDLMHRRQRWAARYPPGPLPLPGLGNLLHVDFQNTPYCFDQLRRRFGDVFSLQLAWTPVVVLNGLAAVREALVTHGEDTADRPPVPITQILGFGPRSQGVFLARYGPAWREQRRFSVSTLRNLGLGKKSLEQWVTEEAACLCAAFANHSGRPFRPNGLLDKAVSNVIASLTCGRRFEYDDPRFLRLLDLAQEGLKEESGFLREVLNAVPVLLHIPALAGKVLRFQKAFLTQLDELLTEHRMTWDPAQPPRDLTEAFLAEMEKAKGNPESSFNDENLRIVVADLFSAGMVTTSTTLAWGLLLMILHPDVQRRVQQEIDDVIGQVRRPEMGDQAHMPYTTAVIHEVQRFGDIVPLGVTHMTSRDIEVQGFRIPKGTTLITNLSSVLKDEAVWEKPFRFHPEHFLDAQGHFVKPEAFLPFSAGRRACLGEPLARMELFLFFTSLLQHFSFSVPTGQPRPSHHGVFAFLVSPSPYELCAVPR

[6] = biological target: FAD-linked sulfhydryl oxidase ALR (Homo sapiens, UniProt P55789); assay: ALR-catalysed DTT oxidation blockers – biochemical, H2O2 detection, luminescence, cherry-pick, dose response (AID 493248)
Chain of FAD-linked sulfhydryl oxidase ALR (P55789 whole entry): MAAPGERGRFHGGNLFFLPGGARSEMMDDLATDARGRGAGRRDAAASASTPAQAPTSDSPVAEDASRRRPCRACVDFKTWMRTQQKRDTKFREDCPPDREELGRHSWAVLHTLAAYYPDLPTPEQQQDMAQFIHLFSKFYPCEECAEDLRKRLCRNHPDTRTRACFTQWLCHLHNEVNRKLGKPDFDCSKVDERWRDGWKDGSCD

Cytochrome P450 2C9 = Cytochrome P450 2C9 (Homo sapiens, UniProt P11712)
Chain of Cytochrome P450 2C9 (P11712 whole entry): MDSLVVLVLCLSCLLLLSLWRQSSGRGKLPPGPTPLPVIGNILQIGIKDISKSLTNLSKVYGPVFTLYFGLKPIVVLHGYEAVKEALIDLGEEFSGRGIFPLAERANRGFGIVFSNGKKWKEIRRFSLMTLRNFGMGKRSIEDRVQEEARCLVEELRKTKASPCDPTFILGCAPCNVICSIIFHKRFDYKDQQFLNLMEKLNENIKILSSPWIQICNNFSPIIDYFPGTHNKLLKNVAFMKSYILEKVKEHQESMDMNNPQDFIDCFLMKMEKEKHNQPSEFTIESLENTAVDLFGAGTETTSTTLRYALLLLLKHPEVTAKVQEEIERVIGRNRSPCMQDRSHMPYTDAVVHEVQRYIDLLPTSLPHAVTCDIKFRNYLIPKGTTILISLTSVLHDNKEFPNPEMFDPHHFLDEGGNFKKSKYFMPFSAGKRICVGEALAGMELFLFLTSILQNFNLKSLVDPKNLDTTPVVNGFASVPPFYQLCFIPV

[7] = Luminescence Cell-Based Dose Retest to Confirm Inhibitors of Cancer Stem Cells. [Related pubchem assays (depositor defined):AID2717, AID2721]; type: functional; details: Homo sapiens
[8] = biological target: T5, Rac GTPase-activating protein 1 (Homo sapiens, UniProt Q9H0H5); assay: blockers of MgcRacGAP-driven Rac1 GTP hydrolysis – biochemical, ADP Hunter fluorescence, primary and confirmatory, confirmation (AID 624330); type: functional
T5 sequence (Q9H0H5 whole entry): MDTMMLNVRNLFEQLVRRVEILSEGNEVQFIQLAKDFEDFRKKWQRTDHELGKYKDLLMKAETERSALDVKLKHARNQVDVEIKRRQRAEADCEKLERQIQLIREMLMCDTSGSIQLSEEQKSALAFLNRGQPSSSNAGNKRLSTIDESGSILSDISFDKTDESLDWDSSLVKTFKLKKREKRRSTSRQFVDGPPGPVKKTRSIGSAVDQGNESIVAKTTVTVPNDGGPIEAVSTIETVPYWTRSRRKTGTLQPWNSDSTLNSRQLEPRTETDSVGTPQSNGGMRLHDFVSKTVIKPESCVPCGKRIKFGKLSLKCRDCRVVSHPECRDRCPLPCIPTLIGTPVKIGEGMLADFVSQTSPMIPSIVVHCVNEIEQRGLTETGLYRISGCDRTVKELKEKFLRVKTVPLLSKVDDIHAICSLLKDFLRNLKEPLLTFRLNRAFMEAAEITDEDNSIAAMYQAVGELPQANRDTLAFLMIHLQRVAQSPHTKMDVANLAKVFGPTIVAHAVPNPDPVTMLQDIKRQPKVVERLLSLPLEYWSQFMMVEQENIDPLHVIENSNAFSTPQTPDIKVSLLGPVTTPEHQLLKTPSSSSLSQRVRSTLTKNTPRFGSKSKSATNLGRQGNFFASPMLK

[9] = Luminescence Cell-Based Dose Response HTS to Identify Activators of Luciferase Translation or Activity in H4 […] Cells. [Related pubchem assays: 1829 (Project Summary), 1814 (Primary HTS)]; type: functional
[10] = biological target: Luciferin 4-monooxygenase (Photinus pyralis, UniProt P08659); assay: inhibition of purified Photinus pyralis luciferase – biochemical, luminescence, dose response (AID 1891)
Chain of Luciferin 4-monooxygenase (P08659 whole entry): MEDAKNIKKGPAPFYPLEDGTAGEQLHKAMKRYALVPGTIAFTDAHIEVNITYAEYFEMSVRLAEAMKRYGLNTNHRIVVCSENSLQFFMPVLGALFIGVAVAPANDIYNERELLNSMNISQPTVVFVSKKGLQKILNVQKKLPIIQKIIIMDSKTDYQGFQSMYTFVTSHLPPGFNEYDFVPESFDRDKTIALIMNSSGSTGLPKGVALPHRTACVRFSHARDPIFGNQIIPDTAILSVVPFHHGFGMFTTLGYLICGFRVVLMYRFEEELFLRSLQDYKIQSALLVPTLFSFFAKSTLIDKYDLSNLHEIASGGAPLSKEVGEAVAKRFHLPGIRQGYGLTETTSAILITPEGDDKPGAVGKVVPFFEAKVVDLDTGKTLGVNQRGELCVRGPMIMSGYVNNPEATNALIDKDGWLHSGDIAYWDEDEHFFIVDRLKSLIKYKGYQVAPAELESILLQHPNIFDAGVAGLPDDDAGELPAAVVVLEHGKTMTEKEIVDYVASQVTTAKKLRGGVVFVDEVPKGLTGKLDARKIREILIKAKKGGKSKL

[11] = Luminescence Cell-Based Dose Confirmation HTS to Identify Inhibitors of Platelet Dense Granule Release. [Related pubchem assays: 1663 (Primary HTS), 1678 (Summary of Project)]; type: functional
[12] = P. falciparum Dd2 growth inhibitors, dose response, SYBR Green, cherry-picked samples (AID 1159567); type: functional, cell-based

O=C1CC2(CCCC2)CC(=O)N1CCCCNC[C@H]1COc2ccccc2O1
AC50 (Cytochrome P450 1A2): 79.4 µM (inconclusive)

CCCCCNC(=O)c1ccccc1SC
IC50 (Protein skinhead-1): 74.6 µM (inactive)

Oc1ccc(CCNCc2cc3c(cc2Br)OCO3)cc1
AC50 (Cytochrome P450 3A4): 3.98 µM (inconclusive)
AC50 (Cytochrome P450 1A2): 1 µM (inconclusive)

O=S(=O)(O)c1ccc2c(/N=N\c3cccc4ccccc34)c(O)c(S(=O)(=O)O)cc2c1
AC50 (Cytochrome P450 1A2): 5.01 µM (inconclusive)

c1ccc(C2(Cn3ccc4ccccc43)OCCO2)cc1
IC50 (Protein skinhead-1): > 100 µM (inactive)
AC50 (INS1): 40.2 µM (active)

CC(C)(C)NC(=O)CN(C(=O)CCC(=O)Nc1nccs1)c1cccc(C(F)(F)F)c1
IC50 (Protein skinhead-1): > 100 µM (inactive)

O=C(C[n+]1cccc(CNC(=O)c2ccc(OC(F)F)cc2)c1)Nc1ccc(SC(F)F)cc1
IC50 [1]: > 20 µM (inactive)
EC50 [2]: 7.5 µM (active)

COc1ccc(C(=O)NCCc2nc3cc([N+](=O)[O-])ccc3n2C)cc1
EC50 (cells [3]): > 350 µM (not active)
EC50 (cells [4]): > 350 µM (not active)

Cc1ccc(OCCNC(=O)CCc2nc(O)c3c4c(sc3n2)CCCC4)cc1
EC50 (cells [3]): > 350 µM (not active)
EC50 (cells [4]): > 350 µM (not active)

Cc1ccc2c(c1)N(C(=O)CCC(=O)NCCCN1CCC(Cc3ccccc3)CC1)CCO2
AC50 (INS1): 20.4 µM (active)
IC50 [1]: > 20 µM (inactive)

COc1ccc(NC(=O)c2cccs2)cn1
EC50 (cells [3]): > 350 µM (not active)
EC50 (cells [4]): 48.3 µM (active)

O=C(CCN1C(=O)S/C(=C\c2ccc(F)cc2)C1=O)Nc1ccc(C(=O)O)c(O)c1
IC50 (cells [5]): 7.61 µM (active)
EC50 (cells [3]): > 350 µM (not active)
EC50 (cells [4]): 3.94 µM (active)

O=C(c1cccc(F)c1)N1CCC2(CCCN(C(c3ccccc3)c3ccccc3)C2)CC1
AC50 (Cytochrome P450 2C19): 5.01 µM (inconclusive)
AC50 (Cytochrome P450 2D6): 10 µM (inconclusive)
AC50 (Cytochrome P450 1A2): 6.31 µM (inconclusive)

CC1=NN2C(=N)/C(=C\c3cc(C)n(Cc4ccccc4)c3C)C(=O)N=C2S1
EC50 (cells [3]): > 350 µM (not active)
AC50 [6]: 0.405 µM (active)
EC50 (cells [4]): > 350 µM (not active)

CC(C)C1NC(=S)N(Cc2ccccc2)C1=O (stereo not drawn)
AC50 (Cytochrome P450 1A2): 20 µM (inconclusive)

COc1ccccc1NC(=O)c1cc(S(=O)(=O)N2CCC3(CC2)OCCO3)ccc1F
IC50 [1]: > 20 µM (inactive)

CCCCc1ccc(NC(=O)C2CCN(S(C)(=O)=O)CC2)cc1
EC50 (cells [3]): > 350 µM (not active)
EC50 (cells [4]): > 350 µM (not active)

O=C(Nc1cnn(Cc2ccc(Cl)cc2)c1)c1ccc([N+](=O)[O-])cc1
AC50 (Cytochrome P450 2C9): 0.501 µM (inconclusive)
AC50 (Cytochrome P450 2C19): 2.24 µM (inconclusive)
AC50 (Cytochrome P450 1A2): 6.31 µM (inconclusive)

O=C(NCCCn1ccnc1)C1CCN(S(=O)(=O)c2cc([N+](=O)[O-])ccc2Cl)CC1
IC50 [1]: > 20 µM (inactive)

CCOC(=O)CSc1nc(C(C)(C)C)cc(C(F)(F)F)c1C#N
IC50 [1]: > 20 µM (inactive)

COc1ccc(-c2c(-c3ccc(C#N)cc3)oc(=O)c3cc(OC)c(OC)cc23)cc1
IC50 [1]: > 20 µM (inactive)

CC1(C(=O)Nc2cnc3ccccc3c2)CCN1C(=O)c1ccccc1CCc1ccccc1 (stereo not drawn)
IC50 (Protein skinhead-1): > 100 µM (inactive)

O=C1C(=Cc2ccccn2)CCc2ccccc21
IC50 (Protein skinhead-1): 43.7 µM (active)

COc1cccc(/C=N/NC(=O)c2ccc(-c3ccccc3)cc2)c1O
EC50 (cells [3]): 166 µM (active)
AC50 [7]: 3.26 µM (active)
AC50 (INS1): 3.83 µM (active)
EC50 (cells [4]): 56.6 µM (active)

CCN(Cc1ccccc1)c1ccc(/C=N/N2CCOCC2)cc1
IC50 [8]: 63.2 µM (active)

N/C(=N\N=C\c1ccc(O)cc1)c1nonc1N
IC50 [8]: 23.4 µM (active)
EC50 [9]: 0.334 µM (active)
EC50 [10]: 8.45 µM (active)
EC50 [11]: 1.07 µM (active)

CCn1c2ccccc2c2cc(N)ccc21
IC50 [8]: 64.1 µM (active)

COc1ccccc1N=NNc1ccccc1OC
IC50 [8]: 90.3 µM (active)

CCC(=O)N1CCCCN2[C@H](C1)[C@H](c1ccc(-c3cccnc3)cc1)[C@@H]2CO
AC50 [12]: 21.9 µM (active)

O=C(O)c1cnc2c(ccc3ncc(C(=O)O)c(O)c32)c1O
AC50 (Cytochrome P450 1A2): 5.01 µM (inconclusive)

CC[N+](C)(CC)CCOC(=O)C1c2ccccc2Oc2ccccc21 [METHANTHELINE]
AC50 (Cytochrome P450 1A2): 10 µM (inconclusive)
